# Test results published in US20250082931A1, “Treating Gastric Cancer Using TTFields Combined with XELOX, FOLFOX or the Individual Constituents Thereof” (Novocure GmbH, priority 2019, published 2025).
# Key:
# KATO III cells [1] = test: Clonogenic effect (colonies count); details: for colonies count: 72 h;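 as to all read-outs here: after treatment, KATO III cells were reseeded and grown 6–14 days, then colonies were fixed, stained and counted, expressed as percent of untreated (no drug) control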
# Method: (§1) After 72 h of treatment the media and the cells were collected, and cytotoxicity was determined by cell counts. […] For the testing of the clonogenic effect, cells were seeded for colonies.
# (§2) After 6-14 days the colonies were fixed, stained and counted to determine clonogenic effect. The overall effect was calculated by multiplying the cytotoxic effect and the clonogenic effect.
# (§3) Clonogenic effect: The colonies from each well were counted using ImageJ software. Average and standard deviation of colony number of at least 5 wells from each treatment were calculated in excel software. The averages from these repeats was calculated to averages and standard errors and is presented as percent from control (no drug treatment) in XY graph of points with error bars using GraphPed software. Significant was determine by 2-way ANOVA followed Multiple comparison using GraphPed software.
# AGS cells [2] = test: Cytotoxic effect by cell count after 72 h, with and without TTFields
# Method: (§4) During the treatment the media of all dishes was replaced every 24 h (“hours”).
# (§5) After 72 h of treatment the media and the cells were collected, and cytotoxicity was determined by cell counts.
# (§6) Cells were seeded on inovitro dishes and petri dishes 24 h before starting the experiments. Media containing the indicated concentration of each chemotherapy component alone or FOLFOX and control media was added to the cells and the dishes were connected to TTFields (as in SOP-BI-009) or grown in 37° C., 5% CO2 for 72 h. Each treatment included 8 repeats (8 dishes). The media was replaced every 24 h. At the end of the experiment the cells were collected, and cytotoxicity was determined by cell counts, small number of cells were seeded for colonies and the cells (including cells from the media) were stained for Annexin V and 7AAD for apoptosis analysis.
# (§7) A TTFields generator (Inovitro systems) was used to apply the treatment to the cells.
# (§8) Cytotoxic effect: Average and standard deviation of cell number of at least 5 dishes from each treatment was calculated in Excel software. The averages from these repeats was calculated to averages and standard error and is presented as percent from control (no drug treatment) in XY graph of points with error bars using GraphPed software. Significant was determine by 2-way ANOVA followed Multiple comparison using GraphPed software.
# KATO III cells [3] = test: Overall effect (cytotoxic effect x clonogenic effect); details: low concentration
# Method: as §2
# Overall effect: Each colony number was multiply in the percent of cytotoxic effect of its dish and averages and standard deviations of each treatment were calculated in Excel software. […] Significant was determine by 2-way ANOVA followed Multiple comparison using GraphPed software.
# AGS cells [4] = test: Clonogenic effect (colonies count); assay type: cell-based; details: for colonies count: 72 h
# Method: as §1, §2, §3
# KATO III cells [5] = test: Cytotoxic effect by cell count after 72 h, with and without TTFields
# Method: as §4, §5, §6, §7, §8
# AGS cells [6] = test: Apoptosis analysis by Annexin V / 7AAD staining; assay type: cell-based; details: for AnnV+ 7AAD+ cell fraction / AnnV+ 7AAD− cell fraction / AnnV− 7AAD+ cell fraction / AnnV− 7AAD− cell fraction: 72 h
# Method: (§9) After 72 h of treatment the media and the cells were collected, and cytotoxicity was determined by cell counts. Cells (including cells from the media) were stained for Annexin V and 7AAD for apoptosis analysis. For the testing of the clonogenic effect, cells were seeded for colonies.
# as §6
# (§10) Apoptotic effect: Average of cell fraction of each marker staining (Annexin V and 7AAD) of at least 5 dishes from each treatment was calculated in Excel software. The averages from these repeats was calculated to averages and is presented in stacked bar graph using GraphPed software.
# KATO III cells [7] = test: Apoptosis analysis by Annexin V / 7AAD staining; assay type: cell-based; details: for AnnV+ 7AAD+ cell fraction / AnnV+ 7AAD− cell fraction / AnnV− 7AAD+ cell fraction / AnnV− 7AAD− cell fraction: 72 h
# Method: as §9, §6, §10
# [8] = 50 nM, + TTFields 150 kHz 1.6 V/cm
# [9] = 100 nM, + TTFields 150 kHz 1.6 V/cm
# [10] = 200 nM, + TTFields 150 kHz 1.6 V/cm
# [11] = 400 nM, + TTFields 150 kHz 1.6 V/cm
# [12] = 25 nM, + TTFields 150 kHz 1.0 V/cm
# [13] = 50 nM, + TTFields 150 kHz 1.0 V/cm
# [14] = 100 nM, + TTFields 150 kHz 1.0 V/cm
# [15] = 200 nM, + TTFields 150 kHz 1.0 V/cm
# [16] = 400 nM, + TTFields 150 kHz 1.0 V/cm
# [17] = FOLFOX experiment, 50 nM, + TTFields 150 kHz 1.0 V/cm
# [18] = FOLFOX experiment, 50 nM, no TTFields
# [19] = FOLFOX experiment, 50 nM, + TTFields 150 kHz 1.6 V/cm
# [20] = 25 nuM, + TTFields 150 kHz 1.0 V/cm
smiles,measurement,setting,value
O=C1[O][Pt]2([NH][C@@H]3CCCC[C@H]3[NH]2)[O]C1=O [Oxaliplatin],colonies count,KATO III cells [1]; [8],46 % from control
same,colonies count,"KATO III cells [1]; 50 nM, no TTFields",71 % from control
same,colonies count,KATO III cells [1]; [9],54 % from control
same,colonies count,"KATO III cells [1]; 100 nM, no TTFields",74 % from control
same,colonies count,KATO III cells [1]; [10],42 % from control
same,colonies count,"KATO III cells [1]; 200 nM, no TTFields",70 % from control
same,colonies count,KATO III cells [1]; [11],17 % from control
same,colonies count,"KATO III cells [1]; 400 nM, no TTFields",23 % from control
same,"colonies number (clonogenic effect and overall effect), drug + TTFields compared to drug alone",KATO III cells [1]; Two-way ANOVA P<0.001,significant reduction in colonies number
same,cell count,AGS cells [2]; [12],62 % from control
same,cell count,"AGS cells [2]; 25 nM, no TTFields",88 % from control
same,cell count,AGS cells [2]; [13],43 % from control
same,cell count,"AGS cells [2]; 50 nM, no TTFields",66 % from control
same,cell count,AGS cells [2]; [14],33 % from control
same,cell count,"AGS cells [2]; 100 nM, no TTFields",52 % from control
same,cell count,AGS cells [2]; [15],21 % from control
same,cell count,"AGS cells [2]; 200 nM, no TTFields",39 % from control
same,cell count,AGS cells [2]; [16],8 % from control
same,cell count,"AGS cells [2]; 400 nM, no TTFields",11 % from control
same,cell count,AGS cells [2]; [17],46 % from control
same,cell count,AGS cells [2]; [18],78 % from control
same,additional clonogenic and overall effect over TTFields alone,KATO III cells [3],no additional effect
same,colonies count,AGS cells [4]; [12],67 % from control
same,colonies count,"AGS cells [4]; 25 nM, no TTFields",91 % from control
same,colonies count,AGS cells [4]; [13],70 % from control
same,colonies count,"AGS cells [4]; 50 nM, no TTFields",92 % from control
same,colonies count,AGS cells [4]; [14],61 % from control
same,colonies count,"AGS cells [4]; 100 nM, no TTFields",97 % from control
same,colonies count,AGS cells [4]; [15],43 % from control
same,colonies count,"AGS cells [4]; 200 nM, no TTFields",77 % from control
same,colonies count,AGS cells [4]; [16],18 % from control
same,colonies count,"AGS cells [4]; 400 nM, no TTFields",36 % from control
same,colonies count,AGS cells [4]; [17],64 % from control
same,colonies count,AGS cells [4]; [18],91 % from control
same,"colonies number (clonogenic effect and overall effect), drug + TTFields compared to drug alone",AGS cells [4]; Two-way ANOVA P<0.001,significant reduction in colonies number
same,cell count,KATO III cells [5]; [8],48 % from control
same,cell count,"KATO III cells [5]; 50 nM, no TTFields",82 % from control
same,cell count,KATO III cells [5]; [9],46 % from control
same,cell count,"KATO III cells [5]; 100 nM, no TTFields",75 % from control
same,cell count,KATO III cells [5]; [10],30 % from control
same,cell count,"KATO III cells [5]; 200 nM, no TTFields",64 % from control
same,cell count,KATO III cells [5]; [11],24 % from control
same,cell count,"KATO III cells [5]; 400 nM, no TTFields",39 % from control
same,cell count,"KATO III cells [5]; 800 nM, + TTFields 150 kHz 1.6 V/cm",21 % from control
same,cell count,"KATO III cells [5]; 800 nM, no TTFields",25 % from control
same,cell count,KATO III cells [5]; [19],51 % from control
same,cell count,KATO III cells [5]; [18],84 % from control
same,"elevation in percent of cells that undergo apoptosis, drug + TTFields compared to drug alone",AGS cells [6],higher
same,AnnV+ 7AAD+ cell fraction,"AGS cells [6]; 25 nM, no TTFields",4.00%
same,AnnV+ 7AAD− cell fraction,"AGS cells [6]; 25 nM, no TTFields",6.55%
same,AnnV− 7AAD+ cell fraction,"AGS cells [6]; 25 nM, no TTFields",1.35%
same,AnnV− 7AAD− cell fraction,"AGS cells [6]; 25 nM, no TTFields",88.10%
same,AnnV+ 7AAD+ cell fraction,AGS cells [6]; [13],11.65%
same,AnnV+ 7AAD− cell fraction,AGS cells [6]; [13],8.40%
same,AnnV− 7AAD+ cell fraction,AGS cells [6]; [13],3.10%
same,AnnV− 7AAD− cell fraction,AGS cells [6]; [13],76.90%
same,AnnV+ 7AAD+ cell fraction,"AGS cells [6]; 50 nM, no TTFields",4.83%
same,AnnV+ 7AAD− cell fraction,"AGS cells [6]; 50 nM, no TTFields",5.08%
same,AnnV− 7AAD+ cell fraction,"AGS cells [6]; 50 nM, no TTFields",2.08%
same,AnnV− 7AAD− cell fraction,"AGS cells [6]; 50 nM, no TTFields",88.00%
same,AnnV+ 7AAD+ cell fraction,AGS cells [6]; [14],12.78%
same,AnnV+ 7AAD− cell fraction,AGS cells [6]; [14],9.78%
same,AnnV− 7AAD+ cell fraction,AGS cells [6]; [14],2.23%
same,AnnV− 7AAD− cell fraction,AGS cells [6]; [14],75.20%
same,AnnV+ 7AAD+ cell fraction,"AGS cells [6]; 100 nM, no TTFields",7.00%
same,AnnV+ 7AAD− cell fraction,"AGS cells [6]; 100 nM, no TTFields",6.45%
same,AnnV− 7AAD+ cell fraction,"AGS cells [6]; 100 nM, no TTFields",1.63%
same,AnnV− 7AAD− cell fraction,"AGS cells [6]; 100 nM, no TTFields",84.93%
same,AnnV+ 7AAD+ cell fraction,AGS cells [6]; [15],14.54%
same,AnnV+ 7AAD− cell fraction,AGS cells [6]; [15],11.10%
same,AnnV− 7AAD+ cell fraction,AGS cells [6]; [15],3.78%
same,AnnV− 7AAD− cell fraction,AGS cells [6]; [15],70.58%
same,AnnV+ 7AAD+ cell fraction,AGS cells [6]; [16],17.83%
same,AnnV+ 7AAD− cell fraction,AGS cells [6]; [16],11.40%
same,AnnV− 7AAD+ cell fraction,AGS cells [6]; [16],4.50%
same,AnnV− 7AAD− cell fraction,AGS cells [6]; [16],66.23%
same,AnnV+ 7AAD+ cell fraction,"AGS cells [6]; 400 nM, no TTFields",10.87%
same,AnnV+ 7AAD− cell fraction,"AGS cells [6]; 400 nM, no TTFields",6.70%
same,AnnV− 7AAD+ cell fraction,"AGS cells [6]; 400 nM, no TTFields",1.83%
same,AnnV− 7AAD− cell fraction,"AGS cells [6]; 400 nM, no TTFields",80.60%
same,AnnV+ 7AAD+ cell fraction,AGS cells [6]; [20],9.00%
same,AnnV+ 7AAD− cell fraction,AGS cells [6]; [20],7.65%
same,AnnV− 7AAD+ cell fraction,AGS cells [6]; [20],0.75%
same,AnnV− 7AAD− cell fraction,AGS cells [6]; [20],82.60%
same,AnnV+ 7AAD+ cell fraction,"AGS cells [6]; 200 nuM, no TTFields",7.64%
same,AnnV+ 7AAD− cell fraction,"AGS cells [6]; 200 nuM, no TTFields",7.00%
same,AnnV− 7AAD+ cell fraction,"AGS cells [6]; 200 nuM, no TTFields",1.46%
same,AnnV− 7AAD− cell fraction,"AGS cells [6]; 200 nuM, no TTFields",83.92%
same,AnnV+ 7AAD+ cell fraction,AGS cells [6]; [17],10.3%
same,AnnV+ 7AAD− cell fraction,AGS cells [6]; [17],7.2%
same,AnnV− 7AAD+ cell fraction,AGS cells [6]; [17],4.4%
same,AnnV− 7AAD− cell fraction,AGS cells [6]; [17],78.2%
same,AnnV+ 7AAD+ cell fraction,AGS cells [6]; [18],4.6%
same,AnnV+ 7AAD− cell fraction,AGS cells [6]; [18],5.1%
same,AnnV− 7AAD+ cell fraction,AGS cells [6]; [18],0.2%
same,AnnV− 7AAD− cell fraction,AGS cells [6]; [18],90.1%
same,"elevation in percent of cells that undergo apoptosis, drug + TTFields compared to drug alone",KATO III cells [7],higher
same,AnnV+ 7AAD+ cell fraction,KATO III cells [7]; [8],16.12%
same,AnnV+ 7AAD− cell fraction,KATO III cells [7]; [8],16.57%
same,AnnV− 7AAD+ cell fraction,KATO III cells [7]; [8],1.31%
same,AnnV− 7AAD− cell fraction,KATO III cells [7]; [8],66.01%
same,AnnV+ 7AAD+ cell fraction,"KATO III cells [7]; 50 nM, no TTFields",6.09%
same,AnnV+ 7AAD− cell fraction,"KATO III cells [7]; 50 nM, no TTFields",11.36%
same,AnnV− 7AAD+ cell fraction,"KATO III cells [7]; 50 nM, no TTFields",1.30%
same,AnnV− 7AAD− cell fraction,"KATO III cells [7]; 50 nM, no TTFields",81.25%
same,AnnV+ 7AAD+ cell fraction,KATO III cells [7]; [9],14.83%
same,AnnV+ 7AAD− cell fraction,KATO III cells [7]; [9],19.81%
same,AnnV− 7AAD+ cell fraction,KATO III cells [7]; [9],0.72%
same,AnnV− 7AAD− cell fraction,KATO III cells [7]; [9],64.63%
same,AnnV+ 7AAD+ cell fraction,"KATO III cells [7]; 100 nM, no TTFields",6.42%
same,AnnV+ 7AAD− cell fraction,"KATO III cells [7]; 100 nM, no TTFields",10.55%
same,AnnV− 7AAD+ cell fraction,"KATO III cells [7]; 100 nM, no TTFields",1.32%
same,AnnV− 7AAD− cell fraction,"KATO III cells [7]; 100 nM, no TTFields",81.71%
same,AnnV+ 7AAD+ cell fraction,KATO III cells [7]; [10],19.97%
same,AnnV+ 7AAD− cell fraction,KATO III cells [7]; [10],22.60%
same,AnnV− 7AAD+ cell fraction,KATO III cells [7]; [10],0.86%
same,AnnV− 7AAD− cell fraction,KATO III cells [7]; [10],56.57%
same,AnnV+ 7AAD+ cell fraction,"KATO III cells [7]; 200 nM, no TTFields",8.42%
same,AnnV+ 7AAD− cell fraction,"KATO III cells [7]; 200 nM, no TTFields",11.47%
same,AnnV− 7AAD+ cell fraction,"KATO III cells [7]; 200 nM, no TTFields",1.01%
same,AnnV− 7AAD− cell fraction,"KATO III cells [7]; 200 nM, no TTFields",79.10%
same,AnnV+ 7AAD+ cell fraction,KATO III cells [7]; [11],21.45%
same,AnnV+ 7AAD− cell fraction,KATO III cells [7]; [11],25.36%
same,AnnV− 7AAD+ cell fraction,KATO III cells [7]; [11],0.65%
same,AnnV− 7AAD− cell fraction,KATO III cells [7]; [11],52.54%
same,AnnV+ 7AAD+ cell fraction,"KATO III cells [7]; 400 nM, no TTFields",11.24%
same,AnnV+ 7AAD− cell fraction,"KATO III cells [7]; 400 nM, no TTFields",12.11%
same,AnnV− 7AAD+ cell fraction,"KATO III cells [7]; 400 nM, no TTFields",1.42%
same,AnnV− 7AAD− cell fraction,"KATO III cells [7]; 400 nM, no TTFields",75.23%
same,AnnV+ 7AAD+ cell fraction,KATO III cells [7]; [19],27.60%
same,AnnV+ 7AAD− cell fraction,KATO III cells [7]; [19],15.15%
same,AnnV− 7AAD+ cell fraction,KATO III cells [7]; [19],1.32%
same,AnnV− 7AAD− cell fraction,KATO III cells [7]; [19],55.94%
same,AnnV+ 7AAD+ cell fraction,KATO III cells [7]; [18],18.07%
same,AnnV+ 7AAD− cell fraction,KATO III cells [7]; [18],10.28%
same,AnnV− 7AAD+ cell fraction,KATO III cells [7]; [18],1.12%
same,AnnV− 7AAD− cell fraction,KATO III cells [7]; [18],70.54%
